Data: ChEMBL document CHEMBL1127553, “Derivatives of a novel cyclopeptolide. 2. Synthesis, activity against multidrug resistance in CHO and KB cells in vitro, and structure-activity relationships” (1994)

How the values were obtained:
Assay type in all cases: functional, Cricetulus griseus
CHO [1] = assay: The sensitizing capacity for colchicine treatment of multi drug resistance (MDR) CHO cell at concentration 1.0(mg/L).
CHO [2] = assay: The sensitizing capacity for colchicine treatment of multi drug resistance(MDR) in CHO cell at concentration 0.1(mg/L).
CHO [3] = assay: Sensitization of colchicine treated parental (PAR)CHO cells, measured at concentration 0.1(mg/L)
CHO [4] = assay: The sensitizing capacity for colchicine treatment of parental (PAR)CHO cells at concentration 1.0 (mg/L)

Row | Compound | Activity (CHO [1]) | Activity (CHO [2]) | Activity (CHO [3]) | Activity (CHO [4])
1 | CC[C@@H](C)[C@H]1C(=O)NCC(=O)N(C)[C@@H](C(C)C)C(=O)N[C@@H](Cc2ccc(OC)cc2)C(=O)O[C@H](C)C(=O)N2CCCC[C@H]2C(=O)N(C)[C@@H](C(C)C)C(=O)N[C@@H](C(C)C)C(=O)N(C)[C@H](CC(=O)N[C@H](CO)C(C)C)C(=O)N(C)[C@@H]([C@@H](C)CC)C(=O)N1C | 144 | 3.2 | 7.6 | 9.8
2 | CC[C@H](C)[C@H]1C(=O)NCC(=O)N(C)[C@@H](C(C)C)C(=O)N[C@@H](Cc2ccc(OC)cc2)C(=O)O[C@H](C)C(=O)N2CCCC[C@H]2C(=O)N(C)[C@@H](C(C)C)C(=O)N[C@@H](C(C)C)C(=O)N(C)[C@@H](CC(=O)OCCC(C)(C)C)C(=O)N(C)[C@@H]([C@@H](C)CC)C(=O)N1C | 95 | 1.9 | 7.5 | 8.7
3 | CC[C@H](C)[C@H]1C(=O)NCC(=O)N(C)[C@@H](C(C)C)C(=O)N[C@@H](Cc2ccc(OC)cc2)C(=O)O[C@H](C)C(=O)N2CCCC[C@H]2C(=O)N(C)[C@@H](C(C)C)C(=O)N[C@@H](C(C)C)C(=O)N(C)[C@@H](CC(=O)OCC23CC4CC(CC(C4)C2)C3)C(=O)N(C)[C@@H]([C@@H](C)CC)C(=O)N1C | 6.7 | 1 | 5.9 | 8.5
4 | CC[C@H](C)[C@H]1C(=O)NCC(=O)N(C)[C@@H](C(C)C)C(=O)N[C@@H](Cc2ccc(OC)cc2)C(=O)O[C@H](C)C(=O)N2CCCC[C@H]2C(=O)N(C)[C@@H](C(C)C)C(=O)N[C@@H](C(C)C)C(=O)N(C)[C@@H](CC(=O)OC23CC4CC(CC(C4)C2)C3)C(=O)N(C)[C@@H]([C@@H](C)CC)C(=O)N1C | 77 | 1.9 | 4.5 | 6
5 | CC[C@@H](C)[C@H]1C(=O)N(C)CC(=O)N(C)[C@@H](C(C)C)C(=O)N(C)[C@@H](Cc2ccc(OC)cc2)C(=O)O[C@H](C)C(=O)N2CCCC[C@H]2C(=O)N(C)[C@@H](C(C)C)C(=O)N(C)[C@@H](C(C)C)C(=O)N(C)[C@H](CC(=O)OC(C)(C)C)C(=O)N(C)[C@@H]([C@@H](C)CC)C(=O)N1C | 24 | 1.2 | 3.6 | 8.7
6 | CC[C@@H](C)[C@H]1C(=O)N(C)CC(=O)N(C)[C@@H](C(C)C)C(=O)N(C)[C@@H](Cc2ccc(OC)cc2)C(=O)O[C@H](C)C(=O)N2CCCC[C@H]2C(=O)N(C)[C@@H](C(C)C)C(=O)N(C)[C@@H](C(C)C)C(=O)N(C)[C@H](CC(=O)OC)C(=O)N(C)[C@@H]([C@@H](C)CC)C(=O)N1C | 5.5 | 1.1 | 1.3 | 4.6
7 | CC[C@H](C)[C@H]1C(=O)NCC(=O)N(C)[C@@H](C(C)C)C(=O)N[C@@H](Cc2ccc(OC)cc2)C(=O)O[C@H](C)C(=O)N2CCCC[C@H]2C(=O)N(C)[C@@H](C(C)C)C(=O)N[C@@H](C(C)C)C(=O)N(C)[C@@H](CC(=O)OCCC(C)C)C(=O)N(C)[C@@H]([C@@H](C)CC)C(=O)N1C | 57 | 1.3 | 5.7 | 7.8
8 | CC[C@H](C)[C@H]1C(=O)NCC(=O)N(C)[C@@H](C(C)C)C(=O)N[C@@H](Cc2ccc(OC)cc2)C(=O)O[C@H](C)C(=O)N2CCCC[C@H]2C(=O)N(C)[C@@H](C(C)C)C(=O)N[C@@H](C(C)C)C(=O)N(C)[C@@H](CC(=O)OC2C3CC4CC(C3)CC2C4)C(=O)N(C)[C@@H]([C@@H](C)CC)C(=O)N1C (stereo partly specified) | 29 | 1.1 | 3.4 | 6.1
9 | C=CCNC(=O)C[C@@H]1C(=O)N(C)[C@@H]([C@@H](C)CC)C(=O)N(C)[C@@H]([C@H](C)CC)C(=O)NCC(=O)N(C)[C@@H](C(C)C)C(=O)N[C@@H](Cc2ccc(OC)cc2)C(=O)O[C@H](C)C(=O)N2CCCC[C@H]2C(=O)N(C)[C@@H](C(C)C)C(=O)N[C@@H](C(C)C)C(=O)N1C | 67 | 1.1 | 5 | 9.3
10 | CC[C@@H](C)[C@H]1C(=O)NCC(=O)N(C)[C@@H](C(C)C)C(=O)N[C@@H](Cc2ccc(OC)cc2)C(=O)O[C@@H](C)C(=O)N2CCCC[C@H]2C(=O)N(C)[C@@H](C(C)C)C(=O)N[C@@H](C(C)C)C(=O)N(C)[C@H](CC(=O)NC2CCCCC2)C(=O)N(C)[C@@H]([C@@H](C)CC)C(=O)N1C | 286 | 72 |  | 
11 | CC[C@H](C)[C@H]1C(=O)NCC(=O)N(C)[C@@H](C(C)C)C(=O)N[C@@H](Cc2ccc(O)cc2)C(=O)O[C@H](C)C(=O)N2CCCC[C@H]2C(=O)N(C)[C@@H](C(C)C)C(=O)N[C@@H](C(C)C)C(=O)N(C)[C@@H](CC(=O)OCc2ccccc2)C(=O)N(C)[C@@H]([C@@H](C)CC)C(=O)N1C | 26 | 1.2 | 4.4 | 14
12 | CC[C@@H](C)[C@H]1C(=O)NCC(=O)N(C)[C@@H](C(C)C)C(=O)N[C@@H](Cc2ccc(OC)cc2)C(=O)O[C@@H](C)C(=O)N2CCCC[C@H]2C(=O)N(C)[C@@H](C(C)C)C(=O)N[C@@H](C(C)C)C(=O)N(C)[C@H](CC(=O)N[C@H](C(=O)OC(C)(C)C)C(C)C)C(=O)N(C)[C@@H]([C@@H](C)CC)C(=O)N1C | 344 | 115 | 8.6 | 11
13 | CC[C@@H](C)[C@H]1C(=O)NCC(=O)N(C)[C@@H](C(C)C)C(=O)N[C@@H](Cc2ccc(OC)cc2)C(=O)O[C@H](C)C(=O)N2CCCC[C@H]2C(=O)N(C)[C@@H](C(C)C)C(=O)N[C@@H](C(C)C)C(=O)N(C)[C@H](CC(=O)N(C)C)C(=O)N(C)[C@@H]([C@@H](C)CC)C(=O)N1C | 36 | 1.2 | 5.9 | 8.5
14 | CC[C@@H](C)[C@H]1C(=O)NCC(=O)N(C)[C@@H](C(C)C)C(=O)N[C@@H](Cc2ccc(OC)cc2)C(=O)N[C@@H](C)C(=O)N2CCCC[C@H]2C(=O)N(C)[C@@H](C(C)C)C(=O)N[C@@H](C(C)C)C(=O)N(C)[C@H](CC(=O)OC(C)(C)C)C(=O)N(C)[C@@H]([C@@H](C)CC)C(=O)N1C | 144 | 5.2 | 4.6 | 6.2
15 | CC[C@@H](C)[C@H]1C(=O)NCC(=O)N(C)[C@@H](C(C)C)C(=O)N[C@@H](Cc2ccc(OC)cc2)C(=O)O[C@H](C)C(=O)N2CCCC[C@H]2C(=O)N(C)[C@@H](C(C)C)C(=O)N[C@@H](C(C)C)C(=O)N(C)[C@H](CC(=O)NC(c2ccccc2)c2ccccc2)C(=O)N(C)[C@@H]([C@@H](C)CC)C(=O)N1C | 147 | 6.4 | 7.5 | 13
16 | CC[C@H](C)[C@H]1C(=O)NCC(=O)N(C)[C@@H](C(C)C)C(=O)N[C@@H](Cc2ccc(OC)cc2)C(=O)O[C@H](C)C(=O)N2CCCC[C@H]2C(=O)N(C)[C@@H](C(C)C)C(=O)N[C@@H](C(C)C)C(=O)N(C)[C@@H](CC(=O)NCc2ccco2)C(=O)N(C)[C@@H]([C@@H](C)CC)C(=O)N1C | 91 | 1.6 | 6.8 | 10
17 | CC[C@H](C)[C@H]1C(=O)NCC(=O)N(C)[C@@H](C(C)C)C(=O)N[C@@H](Cc2ccc(OC)cc2)C(=O)O[C@H](C)C(=O)N2CCCC[C@H]2C(=O)N(C)[C@@H](C(C)C)C(=O)N[C@@H](C(C)C)C(=O)N(C)[C@@H](CC(=O)NC[Si](C)(C)C)C(=O)N(C)[C@@H]([C@@H](C)CC)C(=O)N1C | 163 | 3.3 | 6.7 | 11
18 | CC[C@H](C)[C@H]1C(=O)NCC(=O)N(C)[C@@H](C(C)C)C(=O)N[C@@H](Cc2ccc(OC(C)(C)C)cc2)C(=O)O[C@H](C)C(=O)N2CCCC[C@H]2C(=O)N(C)[C@@H](C(C)C)C(=O)N[C@@H](C(C)C)C(=O)N(C)[C@@H](CC(=O)OC(C)(C)C)C(=O)N(C)[C@@H]([C@@H](C)CC)C(=O)N1C | 300 | 28 | 6.7 | 9
19 | CC[C@@H](C)[C@H]1C(=O)NCC(=O)N(C)[C@@H](C(C)C)C(=O)N[C@@H](Cc2ccc(OCc3ccccc3)cc2)C(=O)O[C@H](C)C(=O)N2CCCC[C@H]2C(=O)N(C)[C@@H](C(C)C)C(=O)N[C@@H](C(C)C)C(=O)N(C)[C@H](CC(=O)O)C(=O)N(C)[C@@H]([C@@H](C)CC)C(=O)N1C | 2.1 | 1.3 | 1.1 | 3.9
20 | CC[C@H](C)[C@H]1C(=O)N(C)[C@@H]([C@@H](C)CC)C(=O)NCC(=O)N(C)[C@@H](C(C)C)C(=O)N[C@@H](Cc2ccc(OC)cc2)C(=O)O[C@H](C)C(=O)N2CCCC[C@H]2C(=O)N(C)[C@@H](C(C)C)C(=O)N[C@@H](C(C)C)C(=O)N(C)[C@H](CN(C)C(C=O)C/C=C/C(=O)OC(C)(C)C)C(=O)N1C (stereo partly specified) | 97 | 19 | 7.6 | 8.7
21 | CC[C@H](C)[C@H]1C(=O)N(C)[C@@H]([C@@H](C)CC)C(=O)NCC(=O)N(C)[C@@H](C(C)C)C(=O)N[C@@H](Cc2ccc(OC)cc2)C(=O)O[C@H](C)C(=O)N2CCCC[C@H]2C(=O)N(C)[C@@H](C(C)C)C(=O)N[C@@H](C(C)C)C(=O)N(C)[C@H](CC(=O)N2CCC[C@H]2C(=O)OC(C)(C)C)C(=O)N1C | 222 | 10 | 6.8 | 8.2
22 | CC[C@H](C)[C@H]1C(=O)NCC(=O)N(C)[C@@H](C(C)C)C(=O)N[C@@H](CC(=O)OC)C(=O)O[C@H](C)C(=O)N2CCCC[C@H]2C(=O)N(C)[C@@H](C(C)C)C(=O)N[C@@H](C(C)C)C(=O)N(C)[C@@H](CC(=O)OC)C(=O)N(C)[C@@H]([C@@H](C)CC)C(=O)N1C | 3.5 | 1.1 | 1.9 | 5.6
